In US9718790B2, “Triazine derivative and pharmaceutical composition having an analgesic activity comprising the same” (SHIONOGI & CO., LTD., priority 2010, dated 2017):
pIC50: −log10 of the molar value.

Target: human P2X3 receptor (Homo sapiens (Human), UniProt P56373)
Assay: Evaluation of human P2X3 receptor inhibitory activity (Fluo-3 calcium fluorescence, FDSS 3000, ATP stimulation);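 also: stimulus was 50 nM ATP with fluorescence followed for 3 min, and the response per well was peak post-ATP fluorescence divided by the reading at measurement start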
Type: cell-based
Details: human P2X3 receptor, Test Example 1

Sequence of human P2X3 receptor (P56373 whole entry): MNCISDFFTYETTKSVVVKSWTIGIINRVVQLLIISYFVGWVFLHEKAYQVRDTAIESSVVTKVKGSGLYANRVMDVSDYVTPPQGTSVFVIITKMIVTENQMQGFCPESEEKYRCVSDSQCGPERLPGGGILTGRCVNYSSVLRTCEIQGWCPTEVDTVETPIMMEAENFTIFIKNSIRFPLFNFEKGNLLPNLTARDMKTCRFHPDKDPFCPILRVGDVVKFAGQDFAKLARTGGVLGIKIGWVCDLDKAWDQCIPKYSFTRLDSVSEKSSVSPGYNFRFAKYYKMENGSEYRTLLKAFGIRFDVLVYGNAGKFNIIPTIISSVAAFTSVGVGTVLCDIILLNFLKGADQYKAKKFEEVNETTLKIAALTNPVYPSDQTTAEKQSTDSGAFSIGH

SMILES	pIC50
CC1(Cn2c(=O)[nH]/c(=N\c3ccc(OCC4CC4)cc3)n(Cc3ccc(Cl)cc3)c2=O)COC(C)(C)OC1 [Compound I-2615]	8.15
CC(CO)(CO)Cn1c(=O)[nH]/c(=N\c2ccc(OCC3CC3)cc2)n(Cc2ccc(Cl)cc2)c1=O [Compound I-2616]	7.92
CC(CO)(CO)Cn1c(=O)[nH]/c(=N\c2ccc(OCC3CC3)cc2)n(Cc2ccc(F)cc2)c1=O [Compound I-2617]	7.38
CCOC(=O)Cn1c(=O)[nH]/c(=N\c2ccc(Oc3nccs3)cc2)n(Cc2ccc(Cl)cc2)c1=O [Compound I-2618]	8.15
CCOC(=O)Cn1c(=O)[nH]/c(=N\c2ccc(Oc3ncc(C)s3)cc2)n(Cc2ccc(Cl)cc2)c1=O [Compound I-2619]	8.22
CCn1c(=O)[nH]/c(=N\c2ccc(Oc3ccc(C(N)=O)cc3)nc2)n(Cc2ccc(Cl)cc2)c1=O [Compound I-2620]	6.96
CCn1c(=O)[nH]/c(=N\c2ccc(Oc3ccc(C(=O)O)cc3)nc2)n(Cc2ccc(Cl)cc2)c1=O [Compound I-2621]	6.58
CCn1c(=O)[nH]/c(=N\c2ccc(Oc3ccc(NCC(=O)O)nc3)cc2)n(Cc2ccc(Cl)cc2)c1=O [Compound I-2622]	8.30
O=C(O)Cn1c(=O)[nH]/c(=N\c2ccc(Oc3nccs3)cc2)n(Cc2ccc(Cl)cc2)c1=O [Compound I-2623]	6.30
Cc1cnc(Oc2ccc(/N=c3\[nH]c(=O)n(CC(=O)O)c(=O)n3Cc3ccc(Cl)cc3)cc2)s1 [Compound I-2624]	6.43
CCn1c(=O)[nH]/c(=N\c2ccc(Oc3ccc(NCC(N)=O)nc3)cc2)n(Cc2ccc(Cl)cc2)c1=O [Compound I-2625]	8.52
CCn1c(=O)[nH]/c(=N\c2ccc(Oc3ccc(NCC(=O)NC)nc3)cc2)n(Cc2ccc(Cl)cc2)c1=O [Compound I-2626]	8.30
CCOC(=O)Cn1c(=O)[nH]/c(=N\c2ccc(Oc3ccon3)cc2)n(Cc2ccc(Cl)cc2)c1=O [Compound I-2627]	8.15
CCOC(=O)Cn1c(=O)[nH]/c(=N\c2ccc(Oc3ncns3)cc2)n(Cc2ccc(Cl)cc2)c1=O [Compound I-2628]	8.40
CCOC(=O)Cn1c(=O)[nH]/c(=N\c2ccc(Oc3cnsn3)cc2)n(Cc2ccc(Cl)cc2)c1=O [Compound I-2629]	8.22
CC1(Cn2c(=O)[nH]/c(=N\c3ccc(Oc4ccon4)cc3)n(Cc3ccc(Cl)cc3)c2=O)COC(C)(C)OC1 [Compound I-2630]	8.52
CCn1c(=O)[nH]/c(=N\c2ccc([S+]([O-])c3ccc(C(=O)O)cc3)cc2)n(Cc2ccc(Cl)cc2)c1=O (stereo not drawn) [Compound I-2631]	6.32
COC(=O)CCn1c(=O)[nH]/c(=N\c2ccc(Oc3cccc(C#N)n3)cc2)n(Cc2ccc(C)cc2)c1=O [Compound I-2633]	8.70
Cc1ccc(Cn2c(=O)n(CCC(=O)O)c(=O)[nH]/c2=N\c2ccc(Oc3cccc(C#N)n3)cc2)cc1 [Compound I-2634]	7.96
Cc1ccc(Cn2c(=O)n(CCC(=O)O)c(=O)[nH]/c2=N\c2ccc(Oc3ccc(C#N)cn3)cc2)cc1 [Compound I-2635]	8.10
COC(=O)CCn1c(=O)[nH]/c(=N\c2ccc(Oc3ccc(C#N)cn3)cc2)n(Cc2ccc(C)cc2)c1=O [Compound I-2636]	8.70
CCn1c(=O)[nH]/c(=N\c2cccc(Oc3nccs3)c2)n(Cc2ccc(Cl)cc2)c1=O [Compound I-2637]	6.75
CCn1c(=O)[nH]/c(=N\c2ccc(Oc3cncc(C)n3)cc2)n(Cc2ccc(Cl)cc2)c1=O [Compound I-2638]	7.82
CCn1c(=O)[nH]/c(=N\c2ccc(Oc3cccc(CO)n3)cc2)n(Cc2ccc(Cl)cc2)c1=O [Compound I-2639]	7.59

SMILES	pIC50
Cc1ccc(Cn2c(=O)n(CCCO)c(=O)[nH]/c2=N\c2ccc(Oc3cccc(C#N)n3)cc2)cc1 [Compound I-2640]	8.70
COc1cccc(Oc2ccc(/N=c3\[nH]c(=O)n(CC(CO)CO)c(=O)n3Cc3ccc(Cl)cc3)cc2)n1 [Compound I-2641]	7.92
CCn1c(=O)[nH]/c(=N\c2ccc(Oc3cnccn3)cc2)n(Cc2ccc(Cl)cc2)c1=O [Compound I-2642]	7.96
O=C(O)Cn1c(=O)[nH]/c(=N\c2ccc(Oc3cnsn3)cc2)n(Cc2ccc(Cl)cc2)c1=O [Compound I-2643]	6.31
NC(=O)Cn1c(=O)[nH]/c(=N\c2ccc(Oc3nccs3)cc2)n(Cc2ccc(Cl)cc2)c1=O [Compound I-2644]	7.77
CNC(=O)Cn1c(=O)[nH]/c(=N\c2ccc(Oc3nccs3)cc2)n(Cc2ccc(Cl)cc2)c1=O [Compound I-2645]	7.74
O=C(Cn1c(=O)[nH]/c(=N\c2ccc(Oc3nccs3)cc2)n(Cc2ccc(Cl)cc2)c1=O)NCCO [Compound I-2646]	8.10
Cc1cnc(Oc2ccc(/N=c3\[nH]c(=O)n(CC(N)=O)c(=O)n3Cc3ccc(Cl)cc3)cc2)s1 [Compound I-2647]	7.80
CNC(=O)Cn1c(=O)[nH]/c(=N\c2ccc(Oc3ncc(C)s3)cc2)n(Cc2ccc(Cl)cc2)c1=O [Compound I-2648]	7.85
Cc1cnc(Oc2ccc(/N=c3\[nH]c(=O)n(CC(=O)NCCO)c(=O)n3Cc3ccc(Cl)cc3)cc2)s1 [Compound I-2649]	8.22
COC(=O)CCn1c(=O)[nH]/c(=N\c2ccc(Oc3cccc(F)n3)cc2)n(Cc2ccc(Cl)cc2)c1=O [Compound I-2650]	8.52
COC(=O)CCn1c(=O)[nH]/c(=N\c2ccc(Oc3nc(C)ns3)cc2)n(Cc2ccc(Cl)cc2)c1=O [Compound I-2651]	8.70
COC(=O)CCn1c(=O)[nH]/c(=N\c2ccc(Oc3ncns3)cc2)n(Cc2ccc(Cl)cc2)c1=O [Compound I-2652]	8.52
O=C(O)CCn1c(=O)[nH]/c(=N\c2ccc(Oc3cccc(F)n3)cc2)n(Cc2ccc(Cl)cc2)c1=O [Compound I-2653]	8.05
NC(=O)CCn1c(=O)[nH]/c(=N\c2ccc(Oc3cccc(F)n3)cc2)n(Cc2ccc(Cl)cc2)c1=O [Compound I-2654]	8.05
CNC(=O)CCn1c(=O)[nH]/c(=N\c2ccc(Oc3cccc(F)n3)cc2)n(Cc2ccc(Cl)cc2)c1=O [Compound I-2655]	8.30
CNC(=O)Nc1cc(Oc2ccc(/N=c3\[nH]c(=O)n(C)c(=O)n3Cc3ccc(Cl)cc3)cc2)ccn1 [Compound I-2656]	8.22
CCOC(=O)Cn1c(=O)[nH]/c(=N\c2ccc(Oc3ncccn3)cc2)n(Cc2ccc(Cl)cc2)c1=O [Compound I-2657]	8.15
CCOC(=O)Cn1c(=O)[nH]/c(=N\c2ccc(Oc3cccnn3)cc2)n(Cc2ccc(Cl)cc2)c1=O [Compound I-2658]	8.30
O=C(O)Cn1c(=O)[nH]/c(=N\c2ccc(Oc3ncns3)cc2)n(Cc2ccc(Cl)cc2)c1=O [Compound I-2659]	6.56
COC(=O)CCn1c(=O)[nH]/c(=N\c2ccc(Oc3cc(C#N)ccn3)cc2)n(Cc2ccc(C)cc2)c1=O [Compound I-2660]	8.52
Cc1ccc(Cn2c(=O)n(CCC(=O)O)c(=O)[nH]/c2=N\c2ccc(Oc3cc(C#N)ccn3)cc2)cc1 [Compound I-2661]	7.82
O=C(O)Cn1c(=O)[nH]/c(=N\c2ccc(Oc3cccnn3)cc2)n(Cc2ccc(Cl)cc2)c1=O [Compound I-2663]	6.48
CCOC(=O)Cn1c(=O)[nH]/c(=N\c2ccc(Oc3ccnnc3)cc2)n(Cc2ccc(Cl)cc2)c1=O [Compound I-2664]	8.52
